Test system: Human primary myoblasts
Assay: Myogenic amplification and commitment of muscle stem cells (Pax7/MyoD staining of human primary myoblasts)
Assay type: cell-based
Conditions: donors 1 and 2 pooled, normalized to total cell number, control DMSO 1%, 96 hours; for proportion of MyoD+ cells, fold change compared to the control condition: FIG. 1B/2B
Method: Human Skeletal Muscle Myoblasts were purchased from Lonza (https://bioscience.lonza.com). These cells were isolated from the upper arm or leg muscle tissue of normal donors and used after the second passage. Several donors were tested to ensure cell viability and purity before selecting the final donors, which are a person (refer thereafter as Donor 1), a person (refer thereafter as Donor 2) and a person (refer thereafter as Donor 3). Human primary myoblasts were seeded in 384 well plates at a density of 1'000 cells per well in skeletal muscle growth medium (SKM-M, AMSbio). For treatment, compounds were directly added to the myoblast cultures 16 hours after initial plating. All cultures were then grown for 96 hours. Cells were stained for Pax7 and MyoD expression using antibodies directed against Pax7 and MyoD and counterstained with Hoechst 33342 to visualize cell nuclei. Pax7+ cells are defined as cells that express Pax7 regardless of MyoD expression. […] Image acquisition was performed using the ImageXpress (Molecular Devices) platform. Custom module analysis based on Multi-Wavelength Cell Scoring of the MetaXpress software was used for quantification. *, **, ***, **** indicates difference from the control, One-way ANOVA, with p<0.05, p<0.01, p<0.001, p<0.0001, respectively. Data are presented as Mean+/−SEM Human primary myoblasts from different donors (donor 1, donor 2 or donor 3) were seeded in 384 well plates at a density of 1′000 cells per well in skeletal muscle growth medium (SKM-M, AMSbio). For treatment, compounds were directly added to the myoblast cultures 16 hours after initial plating. All cultures were then grown for 96 hours. Cells were stained for Pax7 and MyoD expression using antibodies directed against Pax7 and MyoD and counterstained with Hoechst 33342 to visualize cell nuclei. Pax7+ cells are defined as cells that express Pax7 regardless of MyoD expression. […] Image acquisition was performed using the ImageXpress (Molecular Devices) platform. Custom module analysis based on Multi-Wavelength Cell Scoring of the MetaXpress software was used for quantification. […]

Row | Compound | proportion of Pax7+ cells, fold change compared to the control condition (FIG. 1A/2A) | proportion of MyoD+ cells, fold change compared to the control condition
1 | NC(=O)c1cccnc1 [Nicotinamide] | increasing the proportion of both amplifying (Pax7+) and differentiating (MyoD+) cells in a dose dependent manner | increasing the proportion of both amplifying (Pax7+) and differentiating (MyoD+) cells in a dose dependent manner
2 | Cc1ncc(CO)c(CO)c1O [Pyridoxine] | – | increasing the proportion of differentiating (MyoD+) cells in a dose dependent manner
